According to patent EP1056700B1, “MEDICINAL USES OF PHENYLALKANOLS AND DERIVATES” (ZingoTX Pty Ltd, priority 1997, dated 1999):
Where “and” joins values, the source holds several entries; their conditions need not be identical. Equal entries are not always repeated.

How the values were obtained:
[1] = Brine shrimp toxicity bioassay; format: in vivo; conditions: Artemia salina (brine shrimp), in vivo; 24 hours, 2% DMSO
Description: The brine shrimp assay procedure determines LC50 values of active compounds. Activities of a broad range of known active compounds are manifested as toxicity to brine shrimp (Artemia salina Leach). There are many applications of the assay including analysis of toxic substances, anaesthetics, morphine-like substances and cocarcinogenicity of phorbol esters.
The method for testing solvent toxicity used was basically that reported by J L McLaughlin in Methods of Plant Biochemistry (1991), vol. 6 (K Hostettman, ed.), Academic Press, London, 1-32. DMSO solutions of the substances to be tested were added directly to the vials containing the brine shrimp. As the concentration of DMSO that we wished to use was higher than the recommended 1% v/v testing of the toxicity of the DMSO was therefore necessary. The concentrations of DMSO tested on the shrimp, along with the results from the assay which was done in duplicate are listed below.
Brine shrimp toxicity was assayed, except for some minor modifications, according to the method of McLaughlin et al as reported in Brine Shrimp: A convenient bioassay for active plant constituents, B N Meyer, N R Ferrigni, J E Putnam, L B Jacobsen, D E Nichols and J L McLaughlin in Planta Medica (1982), 45, 31-34 and Crown gall tumours on potato discs and brine shrimp lethality: Two simple bioassays for higher plant screening and fractionation. J L McLaughlin. Methods of Plant Biochemistry (1991), vol. 6 (K Hostettman, ed.), Academic Press, London, 1-32. Ten shrimp were transferred to each of the vials and the volume adjusted to 4.9 mL. Each dose was performed in triplicate, including the control. In quick succession, the appropriate volume of additional DMSO for each dose, required to achieve a final concentration of 2%, was added before the appropriate volume of test solution. The vials were gently mixed and the time noted. After 24 hours, the number of survivors were counted and % mortality was determined. The test compounds were assayed at concentrations of 100 µM, 25 µM, 5 µM, 1 µM and 0.2 µM (and where appropriate concentrations of 0.04 µM and 0.008 µM).
The brine shrimp were able to survive without food in the vials over the 24 hour period and were therefore not fed.
The dose-response curves were constructed using the Sigmaplot computer program and the LC50 value was calculated from the intersection point of the curve and the 50 % mortality line. The LC50 values were expressed in both µM and µg/mL.

Cyclo-oxygenase (COX) = test: Cyclo-oxygenase assay in RBL 2H3 cells (PGD2 EIA); format: cell-based, rat; conditions: final concentration of 10 µM
Method: Cyclo-oxygenase (COX) assay was performed with cells in culture prepared from rat basophilic leukemia (RBL) 2H3 cell lines. Cells were cultured in EMEM containing 10% fetal calf serum and antibiotic until cells reached confluence. Harvested cells were subsequently seeded on 24-well plates at 1 x 10^6 cells/ml then incubated at 37°C for 3 hours. Cells were washed twice with incubation buffer (1.5 ml) containing 5 mM Hepes, 140 mM NaCl, 5 mM KCl, 0.6 mM MgCl2, 1 mM CaCl2 and […]. Cells were then covered with 0.49 ml of buffer, followed by addition of samples/solvents (0.005 ml) and incubated at 37 °C for 5 min on an orbital shaker. Arachidonic acid (0.005 ml, containing 50% EtOH) was subsequently added, and the plate was incubated at similar conditions for a further 10 min. The supernatant (0.1 ml) was aliquoted for methoxime derivatisation of PGD2, which was carried out by heating the supernatant with methoxime solution (1:1) at 60 °C for 30 min according to the instructions provided with the kit. The resultant solution was diluted with EIA buffer and stored on ice for EIA, following the protocol provided with the kit.
Validation of COX enzyme activity was carried out using EIA in which the enzyme activity was characterised against various concentrations of AA and a time course of enzyme activity.
[…] Indomethacin was used as reference compound. The concentration of DMSO in the assay was maintained at 1.5%.

Lipoxygenase (LP) = target: T1, Lipoxygenase (LP) (Rattus norvegicus, UniProt P12527); test: Lipoxygenase assay with cell-free enzyme from RBL 2H3 cells (EIA); format: biochemical; conditions: final concentration of 10 µM
T1 construct: cell-free enzyme (Wong et al, 1991) prepared from rat basophilic leukemia (RBL) 2H3 cell lines; endogenous in cells; host or cells: RBL 2H3 (rat basophilic leukemia), 15,000 g supernatant of cells disrupted by nitrogen cavitation
T1 sequence (P12527 1-673): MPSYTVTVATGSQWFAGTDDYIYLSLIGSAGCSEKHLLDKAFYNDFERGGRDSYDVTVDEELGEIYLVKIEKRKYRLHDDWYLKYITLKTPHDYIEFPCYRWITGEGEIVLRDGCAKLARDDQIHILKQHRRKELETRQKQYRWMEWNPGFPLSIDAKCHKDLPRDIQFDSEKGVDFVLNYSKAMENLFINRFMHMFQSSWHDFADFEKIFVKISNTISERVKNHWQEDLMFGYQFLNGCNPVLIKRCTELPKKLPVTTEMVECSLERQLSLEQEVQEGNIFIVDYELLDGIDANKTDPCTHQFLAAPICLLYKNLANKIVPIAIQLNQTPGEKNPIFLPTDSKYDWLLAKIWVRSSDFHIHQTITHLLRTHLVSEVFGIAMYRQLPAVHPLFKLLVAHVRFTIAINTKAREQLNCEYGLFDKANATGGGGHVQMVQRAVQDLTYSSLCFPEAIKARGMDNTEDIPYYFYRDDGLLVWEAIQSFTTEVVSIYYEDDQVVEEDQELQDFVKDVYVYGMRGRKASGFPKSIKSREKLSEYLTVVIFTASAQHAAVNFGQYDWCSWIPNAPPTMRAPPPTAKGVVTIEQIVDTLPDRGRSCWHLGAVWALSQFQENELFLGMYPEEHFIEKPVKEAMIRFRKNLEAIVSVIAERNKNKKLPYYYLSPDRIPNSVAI
Method in brief: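 Cell-free enzyme from the 15,000 g supernatant of nitrogen-cavitated RBL 2H3 cells, preincubated 5 min with compound at 10 µM final (1.5% DMSO) in Hepes pH 7. Reaction started with CaCl2, ATP, PAF and arachidonic acid and run 8 min at room temperature; product quantified by EIA.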

Compound | LC50 at 24 h [1] | Cyclooxygenase activity % activity (Cyclo-oxygenase (COX)) [%] | activity at 10 µM (Lipoxygenase (LP)) [%]
CCCCCCCC(O)CC(=O)CCc1ccc2c(c1)OCO2 (centres unmarked) [5-hydroxy-1-(3,4-methylenedioxyphenyl)dodecan-3-one] | 3 µM and 0.96 µg/mL | 59 | 107
CCCCCCCC(O)CCCCc1ccc(O)c(OC)c1 (centres unmarked) [1-(4-hydroxy-3-methoxyphenyl)dodecan-5-ol] | 6.6 µM and 2 µg/mL | 12 | 35
CCCCCCCC(=O)CC(O)CCc1ccc(O)c(OC)c1 (centres unmarked) [3-hydroxy-1-(4-hydroxy-3-methoxyphenyl)dodecan-5-one] | 67 µM and 22 µg/mL | 18 | 193
CCCCCCCC(O)CC(=O)CCc1ccc(OC)c(O)c1 (centres unmarked) [[8]-isogingerol, 5-hydroxy-1-(3-hydroxy-4-methoxyphenyl)dodecan-3-one, reference compound] | 11 µM and 3.5 µg/mL | 23 | 8
CCCCCCCC(O)CC(=O)CCc1ccc(O)cc1 (centres unmarked) [[8]-demethoxygingerol, 5-hydroxy-1-(4-hydroxyphenyl)dodecan-3-one] | 25 µM and 7.3 µg/mL | 63 | 450
CCCCCCCC(O)CC(=O)c1ccc(O)c(OC)c1 (centres unmarked) [3-hydroxy-1-(4-hydroxy-3-methoxyphenyl)decan-1-one] | 66 µM and 19 µg/mL | 123 | 175
CCCCCC(O)CC(=O)CCc1ccc(O)c(OC)c1 (centres unmarked) [[6]-gingerol, 5-hydroxy-1-(4-hydroxy-3-methoxyphenyl)decan-3-one, reference compound] | > 100 µM and > 29 µg/mL | 55 | 202
CCCCCCCC(O)CC(O)CCc1ccc(O)c(OC)c1 (centres unmarked) [[8]-gingerdiol, 1-(4-hydroxy-3-methoxyphenyl)dodecane-3,5-diol, reference compound] |  | 10 | 26
CCCCCCCCCC(O)CCc1ccc(O)c(OC)c1 (centres unmarked) [1-(4-hydroxy-3-methoxyphenyl)dodecan-3-ol] | > 100 µM and > 31 µg/mL | 9 | 31
CCCCCCCC(O)CC(=O)CCc1ccc(O)c(OC)c1 (centres unmarked) [[8]-gingerol, 5-hydroxy-1-(4-hydroxy-3-methoxyphenyl)dodecan-3-one, reference compound] | 64 µM and 21 µg/mL | 16 | 65.5
CCCCCCCC(O)CC(=O)CCc1cccc(OC)c1O (centres unmarked) [[8]-orthogingerol, 5-hydroxy-1-(2-hydroxy-3-methoxyphenyl)dodecan-3-one] | 9.6 µM and 3.1 µg/mL | 17 | 118
CCCCCCCC(O)CC(=O)C=Cc1ccc(O)c(OC)c1 (centres unmarked) [[8]-dehydrogingerol, 5-hydroxy-1-(4-hydroxy-3-methoxyphenyl)dodecan-1-ene-3-one, reference compound] | 41 µM and 13 µg/mL | 19 | 37
